Source: patent publication US20070258941A1, “Methods and compositions for remediation of disc herniation by modifying structure” (priority 2006, published 2007)
Values joined by “and” are separate entries in the source; they are usually repeats but may differ in a detail not shown here. Equal entries are not always repeated.

Assays:
[1] = system: rabbit lumbar intervertebral discs; test: Effect of polylysine on disc height (disc height index, DHI) after injection into rabbit lumbar discs; assay type: in vivo; details: for L2/3 DHI, Average / L2/3 DHI: injected disc L2/3; for L2/3 DHI, Average / L4/5 DHI, Average: average of six animals; for L2/3 DHI, Average / L2/3 DHI / L4/5 DHI, Average / L4/5 DHI: untreated L3/4 disc = 100; for L2/3 DHI / L4/5 DHI: individual animals 1-6; for L4/5 DHI, Average / L4/5 DHI: injected disc L4/5
Protocol: FIG. 1 is a set of bar graphs showing intervertebral disc heights in rabbits injected with 30-70 kDa polylysine at each of lumbar 2/3 and 4/5, compared with heights of control untreated lumbar discs 3/4 (100%). Disc heights were measured at each of two weeks (FIG. 1, Panel A), four weeks (FIG. 1, Panel B), and six weeks (FIG. 1, Panel C). A decrease in the DHI of approximately 20% was maintained for 6 weeks in this study.
Statistical Analyses: Statistical analyses were performed by one way ANOVA with Fisher's PLSD test as a post hoc test.
Rabbit discs (six animals) were injected with 30-70 kDa polylysine into discs L4/5 and L2/3. As controls, the L3/4 discs were untreated in each of the animals.
Disc height was measured at each of 2, 4 and 6 weeks after injection, and the normalized percentages of starting disc heights observed are shown in FIG. 1. Disc height was reduced by the treatment to about 80% of the initial values, and the decrease of 20% was maintained for the full 6-week observation period.

[2] = system: bovine cartilage explants; test: Distribution kinetics / permeation of FITC-labeled polylysine into cartilage explants (fluorescence of cryostat sections); assay type: in vitro ADME; details: for time for permeation to achieve maximal levels (completed): FITC-labeled polymer, cartilage explants submerged in solution
Protocol: FIG. 2 is a set of photographs of bovine cartilage explants that were incubated with FITC-labeled polylysine (15-30 kDa in size, panels F, G, H, I, and J; and 30-70 kDa in size, panels K, L, M, N, and O) or control untreated cartilage (FIG. 2 panels A, B, C, D, and E). Photographs were taken at each of time points 0.5 hour (FIG. 2, panels A, F, and K), 1.0 hour (FIG. 2, panels B, G, and L), 3 hours (FIG. 2, panels C, H, and M), 7 hours (FIG. 2, panels D, I, and N) and 12 hours (FIG. 2, panels E, J, and O).
After a predetermined time, tissue was washed, frozen, and 10 micron sections were produced using a cryostat.

Substance | L2/3 DHI, Average ([1]; 2 weeks after injection) [%] | L2/3 DHI ([1]; 2 weeks after injection) | L4/5 DHI, Average ([1]; 2 weeks after injection) [%] | L4/5 DHI ([1]; 2 weeks after injection) | L2/3 DHI, Average ([1]; 4 weeks after injection) [%] | L2/3 DHI ([1]; 4 weeks after injection) | L4/5 DHI, Average ([1]; 4 weeks after injection) [%] | L4/5 DHI ([1]; 4 weeks after injection) | L2/3 DHI, Average ([1]; 6 weeks after injection) [%] | L2/3 DHI ([1]; 6 weeks after injection) | L4/5 DHI, Average ([1]; 6 weeks after injection) [%] | L4/5 DHI ([1]; 6 weeks after injection) | disc height after treatment, of the initial values ([1]; rabbit discs L2/3 and L4/5, 2, 4 and 6 weeks after injection) | time for permeation to achieve maximal levels (completed) [2] [h] | rapidity of permeation of cartilage ([2]; compared to the longer chain length (30-70 kDa))
polylysine [30-70 kDa polylysine] | 79.48 | 77.13% and 68.43% and 70.29% and 91.98% and 80.01% and 89.04% | 78.67 | 90.03% and 77.07% and 77.69% and 72.34% and 81.34% and 73.56% | 74.86 | 79.11% and 93.42% and 80.98% and 66.08% and 63.83% and 65.74% | 79.65 | 79.68% and 93.65% and 66.64% and 79.43% and 73.86% and 84.63% | 79.51 | 78.77% and 93.30% and 96.63% and 65.59% and 73.66% and 69.09% | 81.57 | 87.13% and 96.43% and 81.53% and 83.27% and 61.60% and 79.46% | about 80% | – | –
polylysine [longer polymer] | – | – | – | – | – | – | – | – | – | – | – | – | – | 7 to 12 | –
polylysine [shorter cationic polymer] | – | – | – | – | – | – | – | – | – | – | – | – | – | 3 to 7 | enhanced
